Source: paper PMC4412288, “Crystal Structures of the Carboxyl cGMP Binding Domain of the Plasmodium falciparum cGMP-dependent Protein Kinase Reveal a Novel Capping Triad Crucial for Merozoite Egress” (PLoS Pathogens, 2015)

Assays:
[1] = target: T1, PfCNB-C (residues 275–428) (Plasmodium falciparum, UniProt Q8I719); assay: FP binding measurements, isolated PfCNB-C domain
T1 construct: 275–428 for CNB-C; His-tag (pQTEV, TEV site) (N, cleaved yes); made in house; host or cells: E. coli TP2000 (delta-cya)
Source text: A manually designed construct consisting of PfPKG amino acids 1–853 with codons optimized for expression in E.coli was synthesized at Life Technologies. All PfPKG constructs were ligated into the His-tagged bacterial expression vector, pQTEV [28]. In designing the expression constructs of each CNB, we used the sequence of the cGMP selective CNB-B that we recently reported. The domain boundaries for the individual constructs are: residues 1–173 for CNB-A, 158–294 for CNB-B, 275–428 for CNB-C and 401–542 for CNB-D. All PfPKG proteins were expressed in TP2000 E. coli. The cells were grown at 37 °C to an OD600nm of 0.6, then induced with 0.5 mM IPTG, and grown for an additional 10 hours at 25 °C. Cells were harvested by centrifugation, then resuspended in 50 mM potassium phosphate (pH 7.5), 500 mM NaCl and 1 mM β-mercaptoethanol, and lysed using a cell disruptor (Constant Systems).
The direct fluorescence polarization (FP) assay was performed following the procedure from Moll et al. Measurements were performed in 150 mM NaCl, 20 mM MOPS plus 0.005% (w/v) CHAPS pH 7.0 using the Fusion a-FP microtiter plate reader at room temperature in a 384 well microtiterplate (Perkin Elmer, Optiplate, black). The protein concentration was varied while the concentration of 8-Fluo-cAMP/8-Fluo-cGMP (Biolog Life Science Institute (Bremen, Germany)) was fixed at 1–5 nM. […] The KD values were calculated from sigmoidal dose-response curves.
For competition FP experiments, the protein concentration and the concentration of 8-Fluo-cGMP were fixed to give a polarization signal that was 50% of the maximum value obtained from direct FP measurements. […] FP signals were detected as indicated above. Data were analyzed with GraphPad Prism 5.03 by plotting the polarization signal in mPol against the logarithm of the cyclic nucleotide concentration. The EC50 values were calculated from sigmoidal dose-response curves.

[2] = system: P. falciparum PfPKGT618Q/R484A-3xHA transgenic line; assay: Growth assay in presence of compound 2, R484A line; format: cell-based, Plasmodium falciparum; conditions: 1 μM; duration of the experiment 7 days
Description: (§1) P. falciparum lines 3D7/attB [22], 3D7/PfPKGT618Q [6], and 3D7/PfPKG-HA [35] were cultured according to standard procedures in human A+ erythrocytes (National Blood Transfusion Service, UK) and RPMI 1640 medium supplemented with 0.5% Albumax type II (Lifetech) and 5 nM WR99210 (Jacobus Pharmaceuticals, New Jersey).
(§2) P. falciparum cultures were synchronised by repeated sorbitol lysis, then either compound 2 (1μM) or DMSO was added to late trophozoites / early schizonts and cultures harvested 16h later to count newly formed ring stage parasites. Cells were fixed in 4% formaldehyde/0.1% glutaraldehyde in PBS for 30 minutes at room temperature, stained with SYBR green (Lifetech) diluted 1:10000 in PBS for 30 minutes, washed with PBS and analysed on a FACSCalibur cell analyser (Becton Dickinson). FACS data were analysed using FlowJo software. For growth assays, starting parasitaemia was 0.2% ring stages and cultured in presence or absence of compound 2 (1 μM). Samples were taken every 48h and fixed, stained, and analyzed as described above.

[3] = system: P. falciparum PfPKGT618Q-3xHA control line; assay: Growth assay in presence of compound 2, T618Q-3xHA control line; format: cell-based, Plasmodium falciparum; conditions: 1 μM; duration of the experiment 7 days
Description: as §1, §2

[4] = system: P. falciparum PfPKGT618Q/R484A/Q532A/D533A-3xHA transgenic line; assay: Growth assay in presence of compound 2, triple mutant line; format: cell-based, Plasmodium falciparum; conditions: 1 μM; duration of the experiment 7 days
Description: as §1, §2

[5] = system: P. falciparum PfPKGT618Q replacement line and PfPKGT618Q-3xHA control line; assay: Schizont accumulation assay, T618Q lines; format: cell-based, Plasmodium falciparum; conditions: 1 μM; Giemsa-stained blood films
[6] = system: P. falciparum transgenic lines with the capping triad mutations; assay: Schizont accumulation assay, capping triad mutant lines; format: cell-based, Plasmodium falciparum; conditions: 1 μM; Giemsa-stained blood films
Description: P. falciparum cultures were synchronised by repeated sorbitol lysis, then either compound 2 (1μM) or DMSO was added to late trophozoites / early schizonts and cultures harvested 16h later to count newly formed ring stage parasites. […] FACS data were analysed using FlowJo software. For growth assays, starting parasitaemia was 0.2% ring stages and cultured in presence or absence of compound 2 (1 μM). Samples were taken every 48h and fixed, stained, and analyzed as described above.

[7] = system: PfPKG T618Q mutant; design: method as in PMID 18532880, PMID 19915077, PMID 23675297, PMID 24594931; conditions: T618Q gatekeeper substitution; cited from earlier work

T1 sequence (Q8I719 275-428): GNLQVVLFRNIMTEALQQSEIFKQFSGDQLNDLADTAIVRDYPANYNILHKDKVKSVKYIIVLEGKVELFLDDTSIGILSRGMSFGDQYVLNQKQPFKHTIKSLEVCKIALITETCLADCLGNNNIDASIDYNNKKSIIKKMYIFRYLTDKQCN

Row | SMILES | affinity of PfCNB-C for the fluorescent nucleotide [1] | parasite growth in the presence of compound [2] | parasite growth in the presence of compound [3] | parasite growth in the presence of compound [4] | ring stage parasites observed [5] | progression from schizont to ring stage parasites [6] | sensitivity of the kinase to the inhibitor [7]
1 | Nc1nc2c(nc(SCCNC(=S)Nc3ccc4c(c3)C(=O)OC43c4ccc(O)cc4Oc4cc(O)ccc43)n2[C@@H]2O[C@@H]3COP(=O)(O)O[C@H]3[C@H]2O)c(=O)[nH]1 [8-Fluo-cGMP] | very weak affinity |  |  |  |  |  | 
2 | CN(C)Cc1ccn2c(-c3ccnc(N)n3)c(-c3ccc(F)cc3)nc2c1 [compound 2] |  | did not proliferate | able to grow at a similar rate to the allelic replacement control line | did not proliferate | high levels of ring stage parasites | did not progress to ring stage parasites | no longer sensitive
